Assay results from the CombiSolv-Exp solvation set (Vermeire and Green 2021).

Test: solvent given as SMILES

## ClC(Cl)=C(Cl)Cl
In C1CCCC1
  solvation free energy, 298 K: -5.37 kcal/mol
In C1CCOC1
  solvation free energy, 298 K: -5.43 kcal/mol
In C1COCCO1
  solvation free energy, 298 K: -5.1 kcal/mol
In CCC(C)=O
  solvation free energy, 298 K: -4.98 kcal/mol
In CCCCCCCCCCCCCCCC
  solvation free energy, 298 K: -4.88 kcal/mol
In CS(C)=O
  solvation free energy, 298 K: -4.27 kcal/mol
In ClC(Cl)(Cl)Cl
  solvation free energy, 298 K: -5.48 kcal/mol
In ClCCCl
  solvation free energy, 298 K: -5.05 kcal/mol
In O
  solvation free energy, 298 K: -0.06 kcal/mol

## C=CCCCC
In C1CCC2CCCCC2C1
  solvation free energy, 298 K: -3.67 kcal/mol
In C1CCC(C2CCCCC2)CC1
  solvation free energy, 298 K: -3.65 kcal/mol
In C=CCCCCCCCCCCCCCC
  solvation free energy, 298 K: -3.48 kcal/mol
In CC#N
  solvation free energy, 298 K: -2.96 kcal/mol
In CC(C)CC(C)(C)C
  solvation free energy, 298 K: -3.78 kcal/mol
In CCC#N
  solvation free energy, 298 K: -3.49 kcal/mol
In CCCC#N
  solvation free energy, 298 K: -3.2 kcal/mol
In CCCCC(CC)COC(=O)CCCCC(=O)OCC(CC)CCCC
  solvation free energy, 298 K: -3.36 kcal/mol
In CCCCC(CC)COC(=O)c1ccccc1C(=O)OCC(CC)CCCC
  solvation free energy, 298 K: -3.18 kcal/mol
In CCCCCCC
  solvation free energy, 298 K: -3.83 kcal/mol
In CCCCCCCCC=CCCCCCCCC(=O)OCC(COC(=O)CCCCCCCC=CCCCCCCCC)OC(=O)CCCCCCCC=CCCCCCCCC
  solvation free energy, 298 K: -3.41 kcal/mol
In CCCCCCCCCCCCCCCC
  solvation free energy, 298 K: -3.51 kcal/mol
In CCCCCCCCO
  solvation free energy, 298 K: -3.29 kcal/mol
In CCCCCO
  solvation free energy, 298 K: -3.3 kcal/mol
In CCCCO
  solvation free energy, 298 K: -3.22 kcal/mol
In CCCCOC(=O)c1ccccc1C(=O)OCCCC
  solvation free energy, 298 K: -3.37 kcal/mol
In CCN1CCCC1=O
  solvation free energy, 298 K: -3.11 kcal/mol
In CCN(CC)C(C)=O
  solvation free energy, 298 K: -3.26 kcal/mol
In CCNC(C)=O
  solvation free energy, 298 K: -3.04 kcal/mol
In CCNC=O
  solvation free energy, 298 K: -2.85 kcal/mol
In CCOC(=O)c1ccccc1C(=O)OCC
  solvation free energy, 298 K: -2.96 kcal/mol
In CN1CCCC1=O
  solvation free energy, 298 K: -2.91 kcal/mol
In CN1CCCCC1=O
  solvation free energy, 298 K: -3.06 kcal/mol
In CN1CCN(C)C1=O
  solvation free energy, 298 K: -2.83 kcal/mol
In CN(C)C=O
  solvation free energy, 298 K: -2.96 kcal/mol
In CNC=O
  solvation free energy, 298 K: -2.55 kcal/mol
In COC(C)=O
  solvation free energy, 298 K: -3.51 kcal/mol
In CS(C)=O
  solvation free energy, 298 K: -2.1 kcal/mol
In Cc1cccc(C)c1
  solvation free energy, 298 K: -3.74 kcal/mol
In N#CCCCCC#N
  solvation free energy, 298 K: -2.31 kcal/mol
In N#Cc1ccccc1
  solvation free energy, 298 K: -3.15 kcal/mol
In NC=O
  solvation free energy, 298 K: -0.91 kcal/mol
In NCCO
  solvation free energy, 298 K: -1.17 kcal/mol
In Nc1ccccc1
  solvation free energy, 298 K: -2.68 kcal/mol
In O
  solvation free energy, 298 K: 1.58 kcal/mol
In O=C1CCCO1
  solvation free energy, 298 K: -2.49 kcal/mol
In O=CN1CCOCC1
  solvation free energy, 298 K: -2.37 kcal/mol
In O=Cc1ccco1
  solvation free energy, 298 K: -2.62 kcal/mol
In OCCO
  solvation free energy, 298 K: -1.11 kcal/mol
In OCCOCCO
  solvation free energy, 298 K: -1.73 kcal/mol
In OCCOCCOCCO
  solvation free energy, 298 K: -1.83 kcal/mol
In OCCOCCOCCOCCO
  solvation free energy, 298 K: -1.94 kcal/mol
In OCc1ccco1
  solvation free energy, 298 K: -2.53 kcal/mol
In c1ccc2c(c1)CCCC2
  solvation free energy, 298 K: -3.69 kcal/mol
In c1ccc(C2CCCCC2)cc1
  solvation free energy, 298 K: -3.63 kcal/mol

## O=C(O)c1ccc2ccccc2c1
In C=CCCCCCCC=C
  solvation free energy, 298 K: -9.58 kcal/mol
In C=CCCCCCCCCCCCCCC
  solvation free energy, 298 K: -9.37 kcal/mol
In O
  solvation free energy, 298 K: -8.54 kcal/mol

## CCCc1ccc(O)c(OC)c1
In O
  solvation free energy, 298 K: -5.26 kcal/mol

## CCCCOC(=O)c1ccc(O)cc1
In O
  solvation free energy, 298 K: -8.72 kcal/mol

## CCCCN(CCC)N=O
In CC(C)CC(C)(C)C
  solvation free energy, 298 K: -7.18 kcal/mol
In O
  solvation free energy, 298 K: -5.12 kcal/mol

## C1=CCC=CC1
In C1CCC2CCCCC2C1
  solvation free energy, 298 K: -4.4 kcal/mol
In C1CCC(C2CCCCC2)CC1
  solvation free energy, 298 K: -4.34 kcal/mol
In CCC(C)=O
  solvation free energy, 298 K: -4.41 kcal/mol
In O
  solvation free energy, 298 K: -0.67 kcal/mol
In c1ccc2c(c1)CCCC2
  solvation free energy, 298 K: -4.58 kcal/mol
In c1ccc(C2CCCCC2)cc1
  solvation free energy, 298 K: -4.49 kcal/mol

## COc1c(Cl)ccc(Cl)c1C(=O)O
In O
  solvation free energy, 298 K: -9.86 kcal/mol

## CC(C)CCCC(C)C1CCC2C3CC=C4CC(O)CCC4(C)C3CCC12C (configuration not stated)
In O
  solvation free energy, 298 K: -5.93 kcal/mol

## CCOCCOC(C)=O
In O
  solvation free energy, 298 K: -5.31 kcal/mol

## Clc1ccc(Cl)c(-c2cc(Cl)c(Cl)cc2Cl)c1
In CCCCCCCCO
  solvation free energy, 298 K: -12 kcal/mol
In O
  solvation free energy, 298 K: -2.82 kcal/mol

## CCC=C(C)C
In C=CCCCCCCCCCCCCCC
  solvation free energy, 298 K: -3.42 kcal/mol
In CN1CCCC1=O
  solvation free energy, 298 K: -3.06 kcal/mol
In CN(C)C=O
  solvation free energy, 298 K: -3.12 kcal/mol
In O
  solvation free energy, 298 K: 1.47 kcal/mol

## CNC(=O)c1ccccc1
In CC(C)CC(C)(C)C
  solvation free energy, 298 K: -7.63 kcal/mol

## CCCOC
In O
  solvation free energy, 298 K: -1.66 kcal/mol

## C=CC#N
In O
  solvation free energy, 298 K: -3.34 kcal/mol

## CCC(O)C(C)(C)C (configuration not stated)
In CCCCCCCC
  solvation free energy, 298 K: -4.93 kcal/mol
In CCCCCCCCCC
  solvation free energy, 298 K: -4.85 kcal/mol

## CCCc1ccccc1
In C1CCOC1
  solvation free energy, 298 K: -6.63 kcal/mol
In CC#N
  solvation free energy, 298 K: -5.61 kcal/mol
In CC(C)CC(C)(C)C
  solvation free energy, 298 K: -5.89 kcal/mol
In CC(C)O
  solvation free energy, 298 K: -5.41 kcal/mol
In CCCCCC
  solvation free energy, 298 K: -5.55 kcal/mol
In CCCCCCC
  solvation free energy, 298 K: -5.92 kcal/mol
In CCCCCCCCCC
  solvation free energy, 298 K: -5.23 kcal/mol
In CCCCCCCCCCCCCCCC
  solvation free energy, 298 K: -5.76 kcal/mol
In CCCCCCCCO
  solvation free energy, 298 K: -5.58 kcal/mol
In CO
  solvation free energy, 298 K: -5.31 kcal/mol
In NC=O
  solvation free energy, 298 K: -3.49 kcal/mol
In O
  solvation free energy, 298 K: -0.56 kcal/mol
In OCCO
  solvation free energy, 298 K: -3.65 kcal/mol
In OCCOCCO
  solvation free energy, 298 K: -4.55 kcal/mol
In OCCOCCOCCO
  solvation free energy, 298 K: -4.69 kcal/mol

## Clc1ccc(Cl)c(-c2ccccc2)c1
In O
  solvation free energy, 298 K: -2.46 kcal/mol
